These results are taken from ChEMBL document CHEMBL1201862, “PubChem BioAssay data set” (2004).

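Dose response: 5 concentrations. Exposure: 48 h. Format: 96-well plates. Endpoint: linear interpolation; highest concentration if not reached. GI50 = concentration required for 50% inhibition of growth.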 Activity calls are given as the source filed them. Rule as the data show it: active = GI50 up to about 1.1 µM and inactive = higher.

Common to all, as to assay: growth of human tumour cells (NCI), 48 h
For assay [1], the system named is M19-MEL.
The test system of assay [2] is HOP-18.
Assay [3] deals with DLD-1.
The subject of assay [4] is DMS-273.
Assay [5] concerns LXFL 529.
In assay [6] the test system is DMS-114.
Assay [7] concerns RXF 631.
The test system of assay [8] is XF498.
Assay [9] deals with SNB-78.

`COc1cc2ccnc3c(=C(SC)SC)c(=O)c(c1OC)c23`: the GI50 in [1] is 16 µM (inactive); in assay [2], 13.3 µM (inactive); in assay [3], 13.9 µM (inactive); in [4], 13.8 µM (inactive); in assay [5], 4.65 µM (inactive); in [6], 17.3 µM (inactive). Besides, the GI50 in assay [7] is 14.8 µM (inactive).

For `C[C@]12C=CC(=O)C=C1CC[C@@H]1[C@@H]2CC[C@]2(C)OC(=O)CC[C@@H]12` [TESTOLACTONE], the GI50 is 98.4 µM (inactive) in assay [2]; 245 µM (inactive) in assay [8]; 460 µM (inactive) in [9]; > 500 µM (inactive) in assay [3]; > 490 µM (inactive) in [4]; > 500 µM (inactive) in assay [5]. For the same molecule, the GI50 in assay [6] was 376 µM (inactive); in assay [7] it was > 472 µM (inactive).

As for `CC(=O)ON(C(C)=O)C1C(COC(c2ccccc2)(c2ccccc2)c2ccccc2)OC2OC3(CCCC3)OC21` (configuration not stated), the GI50 in assay [1] was 6.62 µM (inactive); in assay [2], 49.3 µM (inactive); in [8] it was 5.19 µM (inactive); in assay [3], 5.32 µM (inactive); in [4] it was 3.57 µM (inactive); in assay [6] it was 5.5 µM (inactive).

For the molecule `O=[N+]([O-])c1cc([N+](=O)[O-])c(/C=C/c2ccc(Cl)c(Cl)c2)cc1/C=C/c1ccc(Cl)c(Cl)c1`, the GI50 in assay [1] was 21.4 µM (inactive); in [9], 47.4 µM (inactive); in assay [4], 28.4 µM (inactive); in assay [5] it was 23.6 µM (inactive); in [6], 24.5 µM (inactive).

Consider `CN(C)CN(C)c1nc(N(C)C)nc(N(C)C)n1`, for which the GI50 in assay [1], in [2], in assay [8], in [9], in assay [3] and in [4] was > 100 µM (inactive) throughout. Besides, the GI50 in assay [5] was 84.7 µM (inactive); in assay [6], 90.2 µM (inactive).

On to `CCOC(=O)C/C(N)=C(\C#N)C(=O)OCC`, for which the GI50 in [1], in [2], in assay [8], in assay [9], in assay [3] and in assay [4] was > 100 µM (inactive) each time. Moreover, the GI50 in assay [5], in [6] and in [7] was > 100 µM (inactive) in each case.

With `CCOC(=O)Oc1cc2c(c(OC)c1OC)-c1ccc(OC)c(=O)cc1C(NC(C)=O)CC2` (configuration not stated), the GI50 was < 0.0164 µM (active) in assay [1]; 0.0432 µM (active) in [8]; 0.0156 µM (active) in [9]; < 0.01 µM (active) in assay [4]; < 0.0162 µM (active) in assay [5]; 0.0137 µM (active) in [6]. Further, the GI50 in assay [7] is 0.0565 µM (active).

In the case of `O=C(O)c1ccccc1Cc1ccco1`, the GI50 in [2], in assay [9], in assay [3], in assay [4], in assay [5] and in assay [6] was > 100 µM (inactive) throughout.

For `CC(=O)NC(CCCNC(=O)NCCCl)C(=O)NCc1ccccc1` (configuration not stated), the GI50 in [1], in assay [2], in [4], in [5], in [6] and in [7] was > 100 µM (inactive) throughout.

Turning to `CCc1cccc(C)c1NS(=O)(=O)c1ccccc1`, the GI50 in assay [1], in assay [8], in assay [9], in assay [3], in assay [4] and in assay [5] was > 100 µM (inactive) throughout. Further, the GI50 in [6] and in [7] was > 100 µM (inactive) throughout.

In the case of `CN1C/C(=C\C=C\c2ccccc2)C(=O)/C(=C/C=C/c2ccccc2)C1`, the GI50 in [1] was > 100 µM (inactive); in [8], > 100 µM (inactive); in assay [9] it was > 100 µM (inactive); in [3], > 100 µM (inactive); in assay [4] it was > 100 µM (inactive); in [5], 78.7 µM (inactive). Also, the GI50 in assay [6] and in assay [7] was > 100 µM (inactive) each time.

As for `C/C(=N/N)c1sc(-c2nc(C)c(/C(C)=N\N)s2)nc1C`, the GI50 is > 100 µM (inactive) in assay [1]; > 67.1 µM (inactive) in [2]; 38.2 µM (inactive) in assay [8]; > 100 µM (inactive) in assay [9]; > 67.9 µM (inactive) in assay [3]; > 41.3 µM (inactive) in [4]. The GI50 in [5] was 50.8 µM (inactive); in assay [6], > 46.7 µM (inactive).

On to `CCN(CC)CCNc1ccc2nnn3c4ccc([N+](=O)[O-])cc4c(=O)c1c23`, for which the GI50 in [1] was > 20.5 µM (inactive); in assay [2], 2.8 µM (inactive); in [8], 6.25 µM (inactive); in assay [9] it was 9.71 µM (inactive); in assay [3] it was 3.93 µM (inactive); in [4], 5.16 µM (inactive). Also, the GI50 is 4.98 µM (inactive) in [5], 8.53 µM (inactive) in [6] and 4.11 µM (inactive) in assay [7].

For the molecule `O=C1C=C(Nc2ccccc2C(=O)CC(=O)C(=O)Nc2ccc(Cl)cc2)c2ccccc2C1=O`, the GI50 in [1] was 1.95 µM (inactive); in assay [2], 0.594 µM (active); in assay [8], 13.7 µM (inactive); in [9], 6.37 µM (inactive); in assay [3] it was 5.56 µM (inactive); in assay [4], 13.8 µM (inactive). The GI50 is 7.52 µM (inactive) in assay [5], 3.64 µM (inactive) in [6] and 30 µM (inactive) in assay [7].

Consider `N#Cc1ccc(Sc2ccccc2)cc1C#N`, for which the GI50 in [1] is > 100 µM (inactive); in assay [2], 50.6 µM (inactive); in assay [8], 23.1 µM (inactive); in assay [3], 34 µM (inactive); in assay [4], 19.1 µM (inactive); in assay [5] it was 59.7 µM (inactive). Further, in assay [7], the GI50 is 30.9 µM (inactive).

As to `OC(c1ccccc1)(c1ccccc1)c1ccncc1`, the GI50 in [1], in [2], in [8], in [9], in assay [3] and in assay [4] was > 100 µM (inactive) each time. Also, the GI50 in assay [5] and in assay [6] was > 100 µM (inactive) throughout.

For `COc1ccc(C)cc(O)c1=O`, the GI50 in assay [1] is 32.3 µM (inactive); in assay [2] it was 40.9 µM (inactive); in assay [9], > 100 µM (inactive); in assay [3], 35.1 µM (inactive); in assay [4], 44.7 µM (inactive); in assay [5], 16.2 µM (inactive). In addition, the GI50 in [6] was 14 µM (inactive).

For the molecule `COc1ccc(CC2c3c(cc(OC)c(OC)c3OC)CCN2C)cc1OC` (configuration not stated), the GI50 in assay [2] was 51.2 µM (inactive); in assay [8], > 100 µM (inactive); in [9], 60 µM (inactive); in assay [3], > 100 µM (inactive); in [5], > 100 µM (inactive).

As for `C/C(=N\NC(C)(C)C)c1sc(-c2nc(C)c(/C(C)=N/NC(C)(C)C)s2)nc1C`, the GI50 in assay [1], in assay [2], in [9], in assay [3], in assay [4] and in assay [5] was > 100 µM (inactive) throughout. The GI50 in assay [6] and in [7] was > 100 µM (inactive) in each case.

For `C1=CC=C2NCCCCCC/N=C3\C=CC=CC=C3NCCc3cccc(c3)CC/N=C/2C=C1`, the GI50 was 16.7 µM (inactive) in [1]; > 100 µM (inactive) in assay [9]; 36.6 µM (inactive) in assay [3]; 10.2 µM (inactive) in assay [4]; 10.7 µM (inactive) in [5]; 13.3 µM (inactive) in assay [6]. The GI50 in [7] was 11.2 µM (inactive).

With `COC(=O)c1csnn1`, the GI50 in [1], in assay [8], in assay [4], in assay [5] and in [6] was > 100 µM (inactive) each time.

Regarding `N#Cc1nc(Nc2cccc3ccccc23)sc1N`, the GI50 in [1] is 28.5 µM (inactive); in assay [8], 20.3 µM (inactive); in [9], 13 µM (inactive); in assay [3] it was 48.4 µM (inactive); in assay [4] it was 36.8 µM (inactive); in [5], 29.9 µM (inactive).

Turning to `CN(c1ccccc1)C1C(=O)N(c2ccccc2)C1/C=C/c1ccccc1` (configuration not stated), the GI50 in [1], in assay [9], in assay [3], in [4] and in assay [5] was > 100 µM (inactive) throughout.

Take `Cc1ccc(SC2C(C)(C)N(C(C)C)P2(=O)N(C(C)C)C(C)C)cc1` (configuration not stated): the GI50 is 26.7 µM (inactive) in assay [1]; > 100 µM (inactive) in [2]; > 68.5 µM (inactive) in [9]; 13.4 µM (inactive) in [4]; 21.3 µM (inactive) in assay [5].

For the molecule `COc1ccc2c(c1)C(=O)c1ccc(OC)cc1C2=S`, the GI50 in assay [1] is > 100 µM (inactive); in assay [2] it was > 100 µM (inactive); in assay [8], 85.3 µM (inactive); in [9] it was 30.7 µM (inactive); in [3], 55.5 µM (inactive); in [4] it was > 100 µM (inactive). Further, the GI50 in [6] was > 100 µM (inactive).

`Cc1cc(C)c(/C=N/NS(=O)(=O)c2ccccc2)c(C)c1`: the GI50 in assay [1] was > 100 µM (inactive); in assay [2], 59 µM (inactive); in assay [9] it was > 100 µM (inactive); in assay [3], 91.8 µM (inactive); in [4], > 100 µM (inactive); in assay [5], 62.2 µM (inactive). Further, the GI50 in assay [6] is 60.4 µM (inactive); in assay [7], > 100 µM (inactive).
